Source: patent EP1038516A1, “Cosmetic composition comprising kynurenine” (Uchikuga, Saburoh, priority 1999, dated 2000)
Values joined by “and” are separate entries in the source; they are usually repeats but may differ in a detail not shown here. Identical values can stand only once.

Columns and labels:
tyrosinase [1] = test: Test Example 1: disappearance of kynurenine / 3-hydroxykynurenine and pigment generation with tyrosinase and dopa or tyrosine; assay type: biochemical; conditions: 3.5 hours; for disappearance of kynurenine or 3-hydroxykynurenine: assayed at 355 nm
Method: 5 units of tyrosinase, 2.5 µmol of dopa or tyrosine, and 1 mg of kynurenine sulfate salt or 3-hydroxykynurenine dihydrate were dissolved in 0.1M phosphate buffer, pH 7.0 to a final volume of 5 ml and the resulting solution was agitated at ambient temperature for 3.5 hours; thereafter, the disappearance of kynurenine or 3-hydroxykynurenine was assayed at 355 nm, which corresponds to the λmax of kynurenine and 3-hydroxykynurenine in UV-A. The contents of the individual tests are shown below in Table 2. Table 2 [table]

[2] = Ultraviolet absorption (maximum absorption wavelength and molecular extinction coefficient); assay type: physicochemical; conditions: for Maximum absorption wavelength (λmax): UV-A region (320 to 380 nm); for Molecular extinction coefficient (ε): at λmax in the UV-A region
Excerpt: The properties of kynurenine and the derivative thereof are collectively shown below in Table 1, along with the properties of "Palsole A". As apparently shown in the table and Fig. 1, the maximum absorption lengths (λmax) of kynurenine and the derivative thereof preferably reside in 360 to 365 nm in the UV-A region (320 to 380 nm) with the highest risk of direct darkening of skin. Kynurenine has a molecular extinction coefficient (ε) functioning as a marker of the intensity of ultraviolet absorption (ε = 4,000), which is about 1/10 of the commercially available Palsole A (ε = 36,000). […] Accordingly, such large quantity considered abnormal is required to be blended. Table 1 In addition to the UV-A region, kynurenine and the derivative thereof have the maximum absorption wavelength at 253 nm with the molecular extinction coefficient of 6,700. In other words, kynurenine and the derivative thereof exert absorption in the UV-C region ([…]). The ultraviolet ray in the UV-C region is generally absorbed in the ozone layer and therefore never reaches ground surface, so the absorption in the region is not meaningful as cosmetics. Kynurenine and the derivative thereof never exert absorption in the UV-B region (290 to 320 nm) in the erythema curve region with the highest risk in sunlight. Thus, an effect on the prevention of erythema against ultraviolet ray in the UV-B region cannot be expected.

tyrosinase [3] = test: Tyrosinase activity-inhibiting effect; assay type: biochemical
Excerpt: It was expectantly assumed that kynurenine and the derivative thereof inhibited tyrosinase and thereby suppressed the generation of black melanin so that kynurenine and the derivative thereof could be utilized as an ingredient for preventing spot and freckle and the deposition of pigments.

5 bacterial strains = test: Ames test (mutagenicity); assay type: cell-based
Excerpt: The kynurenine represented by the general formula I and substances relating thereto are metabolic intermediates of tryptophan and are essentially present in biological organisms; and the kynurenine and substances relating thereto are contained at particularly large quantities in the eyes of human new born babies and infants but are decreased over aging [J. Biochem., Vol. 89, 103 (1981)], and have therefore no safety problem.
The generated brown pigment is present in the eye, skin and wing of Arthropoda and Mollusca. The brown pigment is also contained in human eye. Because the brown pigment is widely distributed in animals in such manner, the generated pigment is greatly safe. The brown pigment (xanthommatin) was chemically synthesized according to the method in Angew. Chem., 69, Jahrg. 16 (1957) and subjected to Ames test.

[4] = Tests 1 and 2: tyrosinase +, dopa/tyrosine +, air +, pH 7.0, ambient temperature

| Structure (SMILES) | disappearance of kynurenine or 3-hydroxykynurenine (tyrosinase [1]; Test 3: tyrosinase with thermal treatment, dopa/tyrosine +, air +) | disappearance of kynurenine or 3-hydroxykynurenine (tyrosinase [1]; Test 4: tyrosinase +, no dopa/tyrosine, air +) | pigment generation (tyrosinase [1]; [4]) | disappearance of kynurenine or 3-hydroxykynurenine (tyrosinase [1]; [4]) | Maximum absorption wavelength (λmax) [2] [nm] | Molecular extinction coefficient (ε) [2] | tyrosinase-inhibiting ability (tyrosinase [3]) | disappearance of kynurenine or 3-hydroxykynurenine (tyrosinase [1]; Test 5: tyrosinase +, dopa/tyrosine +, no air) | molecular extinction coefficient (ε) relative to Palsole A ([2]; UV-A region) | mutagenicity (5 bacterial strains) |
| --- | --- | --- | --- | --- | --- | --- | --- | --- | --- | --- |
| Nc1c(O)cccc1C(=O)CC(N)C(=O)O (stereo not drawn) [3-hydroxykynurenine] | no disappearance of 3-hydroxykynurenine observed. | no disappearance of 3-hydroxykynurenine observed. | pigment generated | disappeared | 355 |  |  |  |  |  |
| COc1ccc(C(=O)CC(=O)c2ccc(C(C)(C)C)cc2)cc1 [Palsole A, reference compound] |  |  |  |  | 355 | 36,000 and 35,000 |  |  |  |  |
| Nc1ccccc1C(=O)CC(N)C(=O)O (stereo not drawn) [kynurenine] |  |  | pigment generated | disappeared | 355 | 4,000 | never has any ability of tyrosinase inhibition or has the ability insufficiently | no disappearance of kynurenine observed. | about 1/10 |  |
| NC(CC(=O)c1cccc2oc3cc(=O)c4[nH]c(C(=O)O)cc(=O)c4c-3nc12)C(=O)O (stereo not drawn) [xanthommatin] |  |  |  |  |  |  |  |  |  | No mutagenicity was observed |
